{"source": "patent US20260328779A1", "about": "“METHODS AND COMPOSITIONS FOR THE DIAGNOSIS AND TREATMENT OF IGA NEPHROPATHY” (Beth Israel Deaconess Medical Center, Inc., priority 2022, published 2026)", "system": "primary human renal mesangial cells", "assay": "Inhibition of anti-Tn CICs-stimulated mesangial cell proliferation (Ki-67)", "format": "cell-based", "conditions": "30 min at RT", "procedure": "[…] of serum was mixed with […] of Tn(+)matrix beads or mock beads overnight at 4° C. (10 rpm). Supernatant was collected after pelleting the beads at 500×g for 30 sec at 4° C. After two rounds of such sequential anti-Tn CICs immunodepletion (serum-ID) and its control (serum-Mock), collected serum was filtered by syringe filter unit (Cat #SLHP033RS, Millipore Sigma) before use. Cells were cultured at ~90% confluency in 96-well plate, and starved in Mesangial cell media (Cat #4201) with 0.5% FBS (Cat #0010) and 0.05× mesangial cell growth supplement (MsCGS, Cat #4252) from ScienCell for 24 h at 37° C. prior to stimulation. Cells were stimulated with 5% serum-Mock, 5% serum-ID with or without exogenous anti-Tn CICs (50 ng/[…]/well, total) for 24 h at 37° C. incubator. Cells were fixed with 4% PFA with 0.05% Triton-X-100 in PBS for 20 min at 4° C. Fixed cells were blocked with 5% (vol/vol) goat serum in PBS for 1 h at 4° C., and incubated with anti-Ki-67 antibody (SP6, rabbit IgG, Cat #CRM325B, Biocare Medical, diluted to 1:50) in PBS for 1 h at 4° C. Cells were washed 3× with chilled PBS, and incubated with Alexa Fluor #488-goat anti-rabbit IgG (Cat #A27034, Thermo Fisher Scientific) at 1:400 in PBS for 1 h at 4° C. in the dark. Cells were washed 3× with chilled PBS, and stained with DAPI (diluted to 0.1 mM) in PBS for 10 min at RT, and analyzed using a microscope (AMG EVOS FL digital inverted microscope, Fisher Scientific, ×400 magnification). For inhibition assay, anti-Tn CICs was preincubated with 100 mM α-methylGalNAc, or α-methylGlcNAc in PBS for 30 min at RT. Serum from three healthy controls (C3, C6, and pooled C1-C10; Cmix) and three IgAN (P5, P10, and pooled P1-P10; Pmix) were used in this assay. […] of serum with IgAN (P1-P20) or healthy control (C1-C20) was analyzed on SDS-PAGE gel, and stained with Coomassie.", "note": "“Also recorded” adds a separate entry of the source."}
{"smiles": "CO[C@H]1O[C@H](CO)[C@H](O)[C@H](O)[C@H]1NC(C)=O", "note": "[α-methylGalNAc]", "values": [{"measurement": "inhibition of proliferative activity of anti-Tn CICs from IgAN patients toward mesangial cells", "setting": "anti-Tn CICs purified from IgAN patients pretreated with 100 mM compound", "value": "inhibits their proliferative activity toward mesangial cells; also recorded: failed to stimulate human renal mesangial cells"}, {"measurement": "inhibition of proliferative activity of anti-Tn CICs from healthy control sera toward mesangial cells", "setting": "anti-Tn CICs purified from healthy control pretreated with 100 mM compound", "value": "did not significantly inhibit mesangial cell proliferation"}]}
